How the values were obtained:
[1] = molecular target: Hormonally up-regulated neu tumor-associated kinase (Homo sapiens) (UniProt P57058); conditions: Compound concentration 1000.0 nM
[2] = molecular target: Mitogen-activated protein kinase 12 (Homo sapiens) (UniProt P53778); conditions: Compound concentration 1000.0 nM
[3] = test system: Tyrosine-protein kinase ABL1 (Homo sapiens), P00519 [M351T]; conditions: Compound concentration 1000.0 nM
[4] = test system: ALK tyrosine kinase receptor (Homo sapiens), Q9UM73 [L1196M]; conditions: Compound concentration 1000.0 nM
[5] = molecular target: ALK tyrosine kinase receptor (Homo sapiens) (UniProt Q9UM73); conditions: Compound concentration 1000.0 nM
[6] = molecular target: Maternal embryonic leucine zipper kinase (Homo sapiens) (UniProt Q14680); conditions: Compound concentration 1000.0 nM
[7] = test system: Epidermal growth factor receptor (Homo sapiens), P00533 [UNDEFINED MUTATION]; conditions: Compound concentration 1000.0 nM
[8] = molecular target: Vascular endothelial growth factor receptor 3 (Homo sapiens) (UniProt P35916); conditions: Compound concentration 1000.0 nM
[9] = molecular target: Mitogen-activated protein kinase kinase kinase 3 (Homo sapiens) (UniProt Q99759); conditions: Compound concentration 1000.0 nM
[10] = molecular target: Phosphatidylinositol 4,5-bisphosphate 3-kinase catalytic subunit beta isoform (Homo sapiens) (UniProt P42338); conditions: Compound concentration 1000.0 nM
Chain of Phosphatidylinositol 4,5-bisphosphate 3-kinase catalytic subunit beta isoform (Homo sapiens) (P42338 whole entry, looked up, canonical isoform): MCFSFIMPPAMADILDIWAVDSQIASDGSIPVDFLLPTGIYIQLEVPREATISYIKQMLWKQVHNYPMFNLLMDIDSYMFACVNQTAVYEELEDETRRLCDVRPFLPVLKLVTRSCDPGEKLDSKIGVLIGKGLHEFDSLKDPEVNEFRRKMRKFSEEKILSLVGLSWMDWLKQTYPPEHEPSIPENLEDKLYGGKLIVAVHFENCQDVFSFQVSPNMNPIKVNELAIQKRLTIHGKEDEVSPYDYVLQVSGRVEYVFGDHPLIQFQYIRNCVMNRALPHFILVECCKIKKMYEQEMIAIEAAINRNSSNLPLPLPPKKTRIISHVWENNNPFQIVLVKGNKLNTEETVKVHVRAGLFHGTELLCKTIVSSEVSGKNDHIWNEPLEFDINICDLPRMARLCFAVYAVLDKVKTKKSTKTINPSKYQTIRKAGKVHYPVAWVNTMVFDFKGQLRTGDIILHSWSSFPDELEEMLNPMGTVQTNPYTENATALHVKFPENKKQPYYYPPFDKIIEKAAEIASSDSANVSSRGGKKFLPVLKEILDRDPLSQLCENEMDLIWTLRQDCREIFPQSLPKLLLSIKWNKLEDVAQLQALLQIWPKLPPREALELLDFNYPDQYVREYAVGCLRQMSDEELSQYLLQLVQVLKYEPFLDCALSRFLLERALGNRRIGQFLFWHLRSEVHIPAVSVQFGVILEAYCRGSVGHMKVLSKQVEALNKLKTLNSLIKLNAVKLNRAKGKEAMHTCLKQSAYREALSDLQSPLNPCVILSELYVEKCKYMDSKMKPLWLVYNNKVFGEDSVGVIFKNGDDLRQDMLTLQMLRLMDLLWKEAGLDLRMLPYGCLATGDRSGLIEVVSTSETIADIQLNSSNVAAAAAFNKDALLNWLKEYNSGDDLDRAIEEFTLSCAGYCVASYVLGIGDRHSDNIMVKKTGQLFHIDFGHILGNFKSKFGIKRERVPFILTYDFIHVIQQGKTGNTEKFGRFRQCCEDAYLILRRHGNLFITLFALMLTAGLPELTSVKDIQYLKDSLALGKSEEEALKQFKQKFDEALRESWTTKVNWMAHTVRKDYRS

[11] = molecular target: Ephrin type-A receptor 3 (Homo sapiens) (UniProt P29320); conditions: Compound concentration 1000.0 nM
[12] = molecular target: RAF proto-oncogene serine/threonine-protein kinase (Homo sapiens) (UniProt P04049); conditions: Compound concentration 1000.0 nM
Rattus norvegicus = organism: Rattus norvegicus; conditions: Compound concentration 10.0 uM
[13] = molecular target: Interferon-induced, double-stranded RNA-activated protein kinase (Homo sapiens) (UniProt P19525); conditions: Compound concentration 1000.0 nM
[14] = molecular target: Serine/threonine-protein kinase 16 (Homo sapiens) (UniProt O75716); conditions: Compound concentration 1000.0 nM
[15] = test system: Phosphatidylinositol 4,5-bisphosphate 3-kinase catalytic subunit alpha isoform (Homo sapiens), P42336 [E542K]; conditions: Compound concentration 1000.0 nM
Chain of Phosphatidylinositol 4,5-bisphosphate 3-kinase catalytic subunit alpha isoform (Homo sapiens), P42336 [E542K] (P42336 whole entry E542K, canonical isoform): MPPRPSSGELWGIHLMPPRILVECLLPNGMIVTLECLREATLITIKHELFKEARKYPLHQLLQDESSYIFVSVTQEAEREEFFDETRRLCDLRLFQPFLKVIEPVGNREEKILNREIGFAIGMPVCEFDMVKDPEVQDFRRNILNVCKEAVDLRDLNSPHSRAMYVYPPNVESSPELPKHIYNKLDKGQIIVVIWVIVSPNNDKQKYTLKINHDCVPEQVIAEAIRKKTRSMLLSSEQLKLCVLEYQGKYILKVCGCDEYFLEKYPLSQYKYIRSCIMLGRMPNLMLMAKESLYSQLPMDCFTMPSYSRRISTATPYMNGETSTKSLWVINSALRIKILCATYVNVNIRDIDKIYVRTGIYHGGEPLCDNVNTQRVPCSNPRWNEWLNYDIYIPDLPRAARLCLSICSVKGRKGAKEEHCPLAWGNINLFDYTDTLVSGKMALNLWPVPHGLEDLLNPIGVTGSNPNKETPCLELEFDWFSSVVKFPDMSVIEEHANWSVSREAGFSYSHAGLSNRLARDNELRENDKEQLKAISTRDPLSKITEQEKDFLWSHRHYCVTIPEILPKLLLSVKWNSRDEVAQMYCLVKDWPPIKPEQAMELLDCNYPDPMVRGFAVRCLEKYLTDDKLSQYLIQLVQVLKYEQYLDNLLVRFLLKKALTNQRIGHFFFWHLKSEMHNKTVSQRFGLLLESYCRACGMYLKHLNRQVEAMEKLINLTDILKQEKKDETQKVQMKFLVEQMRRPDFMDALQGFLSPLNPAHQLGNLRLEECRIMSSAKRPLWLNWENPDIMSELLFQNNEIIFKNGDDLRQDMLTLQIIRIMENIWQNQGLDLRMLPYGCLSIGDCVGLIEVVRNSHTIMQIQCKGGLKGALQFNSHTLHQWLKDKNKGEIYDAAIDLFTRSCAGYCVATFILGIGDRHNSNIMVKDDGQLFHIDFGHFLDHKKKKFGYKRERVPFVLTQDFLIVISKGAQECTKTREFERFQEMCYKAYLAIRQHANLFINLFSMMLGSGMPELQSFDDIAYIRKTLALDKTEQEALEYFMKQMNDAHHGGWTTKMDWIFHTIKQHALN

[16] = molecular target: Mitogen-activated protein kinase kinase kinase 13 (Homo sapiens) (UniProt O43283); conditions: Compound concentration 1000.0 nM
[17] = molecular target: Protein kinase C eta type (Homo sapiens) (UniProt P24723); conditions: Compound concentration 1000.0 nM
[18] = molecular target: Macrophage colony-stimulating factor 1 receptor (Homo sapiens) (UniProt P07333); conditions: Compound concentration 1000.0 nM
[19] = molecular target: Ribosomal protein S6 kinase alpha-6 (Homo sapiens) (UniProt Q9UK32); conditions: Compound concentration 1000.0 nM
[20] = molecular target: Inhibitor of nuclear factor kappa-B kinase subunit epsilon (Homo sapiens) (UniProt Q14164); conditions: Compound concentration 1000.0 nM
[21] = molecular target: Serine/threonine-protein kinase BRSK1 (Homo sapiens) (UniProt Q8TDC3); conditions: Compound concentration 1000.0 nM
Chain of Serine/threonine-protein kinase BRSK1 (Homo sapiens) (Q8TDC3 whole entry): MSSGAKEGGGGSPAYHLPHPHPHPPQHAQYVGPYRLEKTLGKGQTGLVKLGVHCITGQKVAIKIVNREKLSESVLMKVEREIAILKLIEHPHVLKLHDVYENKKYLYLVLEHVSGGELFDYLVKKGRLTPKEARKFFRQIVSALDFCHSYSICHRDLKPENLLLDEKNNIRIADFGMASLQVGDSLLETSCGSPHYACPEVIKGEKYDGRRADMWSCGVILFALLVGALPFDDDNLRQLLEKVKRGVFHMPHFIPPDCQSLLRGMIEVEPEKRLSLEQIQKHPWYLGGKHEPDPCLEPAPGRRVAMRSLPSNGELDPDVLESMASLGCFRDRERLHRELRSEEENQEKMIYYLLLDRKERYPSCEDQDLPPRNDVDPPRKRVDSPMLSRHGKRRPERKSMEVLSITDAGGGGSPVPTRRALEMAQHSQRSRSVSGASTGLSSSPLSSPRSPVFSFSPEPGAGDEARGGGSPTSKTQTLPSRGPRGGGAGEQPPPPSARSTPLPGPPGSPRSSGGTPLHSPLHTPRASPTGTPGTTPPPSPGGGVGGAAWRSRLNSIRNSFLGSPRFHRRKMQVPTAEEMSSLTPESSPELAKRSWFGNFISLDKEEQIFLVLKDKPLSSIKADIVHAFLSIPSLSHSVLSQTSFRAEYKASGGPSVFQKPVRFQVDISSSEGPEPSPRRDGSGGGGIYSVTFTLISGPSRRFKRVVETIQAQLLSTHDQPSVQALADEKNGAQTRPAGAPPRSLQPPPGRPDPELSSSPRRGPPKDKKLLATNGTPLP

[22] = molecular target: Phosphatidylinositol 5-phosphate 4-kinase type-2 gamma (Homo sapiens) (UniProt Q8TBX8); conditions: Compound concentration 1000.0 nM
[23] = molecular target: Serine/threonine-protein kinase haspin (Homo sapiens) (UniProt Q8TF76); conditions: Compound concentration 1000.0 nM
[24] = molecular target: Ephrin type-B receptor 4 (Homo sapiens) (UniProt P54760); conditions: Compound concentration 1000.0 nM
[25] = test system: Tyrosine-protein kinase ABL1 (Homo sapiens), P00519 [F317L]; conditions: Compound concentration 1000.0 nM
[26] = molecular target: Serine/threonine-protein kinase 3 (Homo sapiens) (UniProt Q13188); conditions: Compound concentration 1000.0 nM
[27] = molecular target: Tyrosine-protein kinase HCK (Homo sapiens) (UniProt P08631); conditions: Compound concentration 1000.0 nM
[28] = molecular target: Mitogen-activated protein kinase kinase kinase 7 (Homo sapiens) (UniProt O43318); conditions: Compound concentration 1000.0 nM
[29] = molecular target: MAP/microtubule affinity-regulating kinase 3 (Homo sapiens) (UniProt P27448); conditions: Compound concentration 1000.0 nM
Chain of MAP/microtubule affinity-regulating kinase 3 (Homo sapiens) (P27448 whole entry, looked up, canonical isoform): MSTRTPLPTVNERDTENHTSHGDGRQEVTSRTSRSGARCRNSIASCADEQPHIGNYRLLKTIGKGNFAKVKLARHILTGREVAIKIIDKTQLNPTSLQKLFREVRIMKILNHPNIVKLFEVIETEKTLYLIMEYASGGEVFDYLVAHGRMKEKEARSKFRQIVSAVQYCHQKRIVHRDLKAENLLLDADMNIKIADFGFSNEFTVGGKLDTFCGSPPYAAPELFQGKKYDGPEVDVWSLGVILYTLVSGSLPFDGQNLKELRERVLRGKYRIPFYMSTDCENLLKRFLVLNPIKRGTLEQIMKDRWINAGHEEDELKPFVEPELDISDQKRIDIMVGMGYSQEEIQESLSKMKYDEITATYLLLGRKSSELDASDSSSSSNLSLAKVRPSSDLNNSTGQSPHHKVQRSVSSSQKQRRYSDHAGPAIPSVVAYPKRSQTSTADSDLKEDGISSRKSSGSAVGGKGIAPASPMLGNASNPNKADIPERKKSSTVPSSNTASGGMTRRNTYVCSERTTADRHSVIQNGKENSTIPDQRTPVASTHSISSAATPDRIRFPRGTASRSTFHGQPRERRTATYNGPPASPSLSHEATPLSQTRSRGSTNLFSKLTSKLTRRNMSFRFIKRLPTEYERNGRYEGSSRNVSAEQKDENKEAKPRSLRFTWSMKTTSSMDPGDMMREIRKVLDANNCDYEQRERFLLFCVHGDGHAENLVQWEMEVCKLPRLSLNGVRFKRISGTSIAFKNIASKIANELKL

[30] = molecular target: Casein kinase I isoform epsilon (Homo sapiens) (UniProt P49674); conditions: Compound concentration 1000.0 nM
[31] = molecular target: Serine/threonine-protein kinase DCLK2 (Homo sapiens) (UniProt Q8N568); conditions: Compound concentration 1000.0 nM
[32] = molecular target: Serine/threonine-protein kinase PAK 5 (Homo sapiens) (UniProt Q9P286); conditions: Compound concentration 1000.0 nM
[33] = molecular target: Calcium/calmodulin-dependent protein kinase type IV (Homo sapiens) (UniProt Q16566); conditions: Compound concentration 1000.0 nM
Chain of Calcium/calmodulin-dependent protein kinase type IV (Homo sapiens) (Q16566 whole entry): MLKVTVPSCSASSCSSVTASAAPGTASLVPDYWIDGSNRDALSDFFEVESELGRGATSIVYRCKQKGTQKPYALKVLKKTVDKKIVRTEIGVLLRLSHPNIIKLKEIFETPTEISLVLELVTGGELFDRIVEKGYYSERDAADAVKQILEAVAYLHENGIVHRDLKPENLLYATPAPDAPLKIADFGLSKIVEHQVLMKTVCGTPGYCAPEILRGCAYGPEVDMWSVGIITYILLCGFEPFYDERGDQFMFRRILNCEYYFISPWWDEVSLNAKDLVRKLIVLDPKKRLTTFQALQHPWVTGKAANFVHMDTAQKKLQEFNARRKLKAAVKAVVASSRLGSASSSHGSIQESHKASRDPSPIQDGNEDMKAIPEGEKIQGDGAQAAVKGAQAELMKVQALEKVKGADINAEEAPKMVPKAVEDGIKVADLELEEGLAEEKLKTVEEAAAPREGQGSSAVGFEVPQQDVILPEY

[34] = molecular target: Serine/threonine-protein kinase 24 (Homo sapiens) (UniProt Q9Y6E0); conditions: Compound concentration 1000.0 nM
[35] = molecular target: Cyclin-dependent kinase 11B (Homo sapiens) (UniProt P21127); conditions: Compound concentration 1000.0 nM
[36] = molecular target: NUAK family SNF1-like kinase 1 (Homo sapiens) (UniProt O60285); conditions: Compound concentration 1000.0 nM
[37] = molecular target: Sodium-dependent noradrenaline transporter (Homo sapiens) (UniProt P23975); conditions: Compound concentration 10.0 uM
[38] = molecular target: Serine/threonine-protein kinase Nek9 (Homo sapiens) (UniProt Q8TD19); conditions: Compound concentration 1000.0 nM
[39] = molecular target: cAMP-dependent protein kinase catalytic subunit PRKX (Homo sapiens) (UniProt P51817); conditions: Compound concentration 1000.0 nM
Chain of cAMP-dependent protein kinase catalytic subunit PRKX (Homo sapiens) (P51817 whole entry): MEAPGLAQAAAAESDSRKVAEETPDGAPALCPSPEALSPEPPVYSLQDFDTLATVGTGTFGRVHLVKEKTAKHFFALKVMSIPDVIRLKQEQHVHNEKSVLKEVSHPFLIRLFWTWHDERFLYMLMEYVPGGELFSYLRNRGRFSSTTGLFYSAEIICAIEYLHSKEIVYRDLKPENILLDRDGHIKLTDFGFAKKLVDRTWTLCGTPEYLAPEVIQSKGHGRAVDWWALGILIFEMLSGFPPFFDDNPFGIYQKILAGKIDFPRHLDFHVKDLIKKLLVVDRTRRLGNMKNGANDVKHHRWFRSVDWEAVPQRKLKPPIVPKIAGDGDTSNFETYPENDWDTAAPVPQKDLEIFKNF

[40] = molecular target: Dual specificity mitogen-activated protein kinase kinase 2 (Homo sapiens) (UniProt P36507); conditions: Compound concentration 1000.0 nM
[41] = molecular target: Mitotic checkpoint serine/threonine-protein kinase BUB1 (Homo sapiens) (UniProt O43683); conditions: Compound concentration 1000.0 nM
[42] = molecular target: Histamine H2 receptor (Homo sapiens) (UniProt P25021); conditions: Compound concentration 10.0 uM
[43] = molecular target: Serine/threonine-protein kinase Nek4 (Homo sapiens) (UniProt P51957); conditions: Compound concentration 1000.0 nM
[44] = molecular target: Serine/threonine-protein kinase STK11 (Homo sapiens) (UniProt Q15831); conditions: Compound concentration 1000.0 nM
Chain of Serine/threonine-protein kinase STK11 (Homo sapiens) (Q15831 whole entry): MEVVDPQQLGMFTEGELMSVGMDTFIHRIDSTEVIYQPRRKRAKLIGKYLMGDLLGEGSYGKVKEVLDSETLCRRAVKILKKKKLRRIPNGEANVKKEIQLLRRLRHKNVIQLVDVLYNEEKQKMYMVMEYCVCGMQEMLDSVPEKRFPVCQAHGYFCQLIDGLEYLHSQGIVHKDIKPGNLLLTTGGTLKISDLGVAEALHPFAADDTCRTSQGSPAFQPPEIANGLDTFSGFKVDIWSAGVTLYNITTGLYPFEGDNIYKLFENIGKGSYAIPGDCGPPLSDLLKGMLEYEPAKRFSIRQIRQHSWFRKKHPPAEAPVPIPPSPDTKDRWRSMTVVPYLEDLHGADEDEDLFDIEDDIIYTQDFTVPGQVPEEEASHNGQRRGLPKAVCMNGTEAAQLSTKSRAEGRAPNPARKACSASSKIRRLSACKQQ

O=c1nc(-c2ccccn2)sc2ccccc12 [BTZO-1]
inactive: residual activity [1] 81% | residual activity [2] 58% | residual activity [3] 100% | residual activity [4] 93% | residual activity [5] 84% | residual activity [6] 82% | residual activity [7] 74% | residual activity [8] 84% | residual activity [9] 77% | residual activity [10] 100% | residual activity [11] 87% | residual activity [12] 100% | inhibition (Rattus norvegicus) 9.91% | residual activity [13] 100% | residual activity [14] 83% | residual activity [15] 89% | residual activity [16] 100% | residual activity [17] 98% | residual activity [18] 85% | residual activity [19] 92% | residual activity [20] 100% | residual activity [21] 91% | residual activity [22] 98% | residual activity [23] 100% | residual activity [24] 100% | residual activity [25] 100% | residual activity [26] 94% | residual activity [27] 94% | residual activity [28] 78% | residual activity [29] 89% | residual activity [30] 88% | residual activity [31] 97% | residual activity [32] 87% | residual activity [33] 97% | residual activity [34] 100% | residual activity [35] 100% | residual activity [36] 100% | inhibition [37] -0.363% | residual activity [38] 96% | residual activity [39] 100% | residual activity [40] 89% | residual activity [41] 100% | inhibition [42] 24.4% | residual activity [43] 91% | residual activity [44] 79%

O=C1NC(c2ccccn2)Sc2ccccc21 (stereo not given) [BTZO-4]
inactive: residual activity [1] 80% | residual activity [2] 51% | residual activity [3] 100% | residual activity [4] 97% | residual activity [5] 89% | residual activity [6] 81% | residual activity [7] 68% | residual activity [8] 70% | residual activity [9] 93% | residual activity [10] 100% | residual activity [11] 100% | residual activity [12] 100% | inhibition (Rattus norvegicus) 22.6% | residual activity [13] 91% | residual activity [14] 83% | residual activity [15] 100% | residual activity [16] 100% | residual activity [17] 100% | residual activity [18] 85% | residual activity [19] 81% | residual activity [20] 94% | residual activity [21] 76% | residual activity [22] 100% | residual activity [23] 100% | residual activity [24] 100% | residual activity [25] 100% | residual activity [26] 100% | residual activity [27] 90% | residual activity [28] 99% | residual activity [29] 95% | residual activity [30] 98% | residual activity [31] 92% | residual activity [32] 94% | residual activity [33] 72% | residual activity [34] 94% | residual activity [35] 100% | residual activity [36] 95% | inhibition [37] 28.7% | residual activity [38] 75% | residual activity [39] 100% | residual activity [40] 75% | residual activity [41] 100% | inhibition [42] 24.8% | residual activity [43] 58% | residual activity [44] 87%

Source: ChEMBL document CHEMBL4507329, “Data for DCP probe BTZO-1” (2021)
